According to patent publication US20220125903A1, “METHODS FOR IMPROVING THE EFFICACY OF A SURVIVIN THERAPEUTIC IN THE TREATMENT OF TUMORS” (IMMUNOVACCINE TECHNOLOGIES INC., priority 2018, published 2022):
Marks after values point to notes of the source that are not given here.

Key:
recurrent ovarian cancer = assay: Phase 1b study: DPX-Survivac with low dose cyclophosphamide and epacadostat, tumor response by modified RECIST 1.1; type: in vivo, human; conditions: for CR (complete response), number of subjects / DCR (CR + PR + SD), disease control rate / DCR (CR + PR + SD), number of subjects / ORR (overall response rate), % of subjects / ORR (overall response rate), number of subjects / PR (partial response), % of subjects / PR (partial response), number of subjects / Partial response, % of subjects / Partial response, subjects/N / Progressive disease, % of subjects / Progressive disease, subjects/N / Stable disease, % of subjects / Stable disease, subjects/N / Tumor regressions, % of subjects / Tumor regressions, subjects/N / PD (progressive disease), % of subjects / PD (progressive disease), subjects/N / PR (partial response), subjects/N: with DPX-Survivac + low dose CPA
survivin = assay: Cell mediated immunity: survivin-specific T cell response by ELISpot (Phase 1b); type: in vivo, human; conditions: with DPX-Survivac + low dose CPA
Protocol: Cell Mediated Immunity was determined by immunogenicity analysis and describe as the percentage of subjects with a positive immune response to one or more epitopes in the T cell activation therapeutic as well as changes in immune cell infiltration to the tumor. For ELISpot, antigen-specific response rate greater than Mean+2SD (typically>64 SFU/106 PBMC) obtained from pre-treatment and/or unstimulated/background cells was considered a positive response. Further, based on the magnitude of ELISpot response following treatment, subjects were classified as low (>64 to <512 SFU/106 PBMC) or high (>512 SFU/106 PBMC) immune responders to treatment or described as having a high and sustained immune response (3 separate time points >512 SFU/106 PBMC).

[1] = all epacadostat doses (N = 15), total target lesion size < 5 cm
[2] = all epacadostat doses (N = 38), total target lesion size ≥ 5 cm
[3] = epacadostat 100 mg (N = 5), sum of target lesion at baseline <5 cm
[4] = epacadostat 100 mg (N = 14), all subjects
[5] = epacadostat 100 mg BID (N = 5), total target lesion size < 5 cm
[6] = epacadostat 100 mg BID (N = 9), total target lesion size ≥ 5 cm
[7] = epacadostat 100 mg and 300 mg, Total (N = 53)
[8] = epacadostat 300 mg (N = 10), sum of target lesion at baseline <5 cm, partially monitored data
[9] = epacadostat 300 mg (N = 39), all subjects, partially monitored data
[10] = epacadostat 300 mg BID (N = 10), total target lesion size < 5 cm
[11] = epacadostat 300 mg BID (N = 29), total target lesion size ≥ 5 cm
[12] = epacadostat Total (N = 15), sum of target lesion at baseline <5 cm

Compound: NS(=O)(=O)NCCNc1nonc1/C(=N\c1ccc(F)c(Br)c1)NO [Epacadostat]
- dose related activity of epacadostat (recurrent ovarian cancer; preliminary analysis, 100 mg vs 300 mg combined with DPX-Survivac and low dose CPA): absence of dose related activity
- CR (complete response), number of subjects (recurrent ovarian cancer; [1]): 0
- DCR (CR + PR + SD), disease control rate (recurrent ovarian cancer; [1]): (66.7%)
- DCR (CR + PR + SD), number of subjects (recurrent ovarian cancer; [1]): 10
- ORR (overall response rate), % of subjects (recurrent ovarian cancer; [1]): (26.7%)
- ORR (overall response rate), number of subjects (recurrent ovarian cancer; [1]): 4
- PR (partial response), % of subjects (recurrent ovarian cancer; [1]): (26.7%)
- PR (partial response), number of subjects (recurrent ovarian cancer; [1]): 4
- CR (complete response), number of subjects (recurrent ovarian cancer; [2]): 0
- DCR (CR + PR + SD), disease control rate (recurrent ovarian cancer; [2]): (39.5%)
- DCR (CR + PR + SD), number of subjects (recurrent ovarian cancer; [2]): 15
- ORR (overall response rate), % of subjects (recurrent ovarian cancer; [2]): (2.6%)
- ORR (overall response rate), number of subjects (recurrent ovarian cancer; [2]): 1
- PR (partial response), % of subjects (recurrent ovarian cancer; [2]): (2.6%)
- PR (partial response), number of subjects (recurrent ovarian cancer; [2]): 1
- Partial response, % of subjects (recurrent ovarian cancer; [3]): (60.0%)
- Partial response, subjects/N (recurrent ovarian cancer; [3]): 3/5
- Progressive disease, % of subjects (recurrent ovarian cancer; [3]): (0%)
- Progressive disease, subjects/N (recurrent ovarian cancer; [3]): 0/5
- Stable disease, % of subjects (recurrent ovarian cancer; [3]): (40.0%)
- Stable disease, subjects/N (recurrent ovarian cancer; [3]): 2/5
- Tumor regressions, % of subjects (recurrent ovarian cancer; [3]): (100%)
- Tumor regressions, subjects/N (recurrent ovarian cancer; [3]): 5/5
- PD (progressive disease), % of subjects (recurrent ovarian cancer; [4]): (35.7%)
- PD (progressive disease), subjects/N (recurrent ovarian cancer; [4]): 5/14
- PR (partial response), % of subjects (recurrent ovarian cancer; [4]): (21.4%)
- PR (partial response), subjects/N (recurrent ovarian cancer; [4]): 3/14
- Tumor regressions, % of subjects (recurrent ovarian cancer; [4]): (35.7%)
- Tumor regressions, subjects/N (recurrent ovarian cancer; [4]): 5/14
- CR (complete response), number of subjects (recurrent ovarian cancer; [5]): 0
- DCR (CR + PR + SD), disease control rate (recurrent ovarian cancer; [5]): (100%)
- DCR (CR + PR + SD), number of subjects (recurrent ovarian cancer; [5]): 5
- ORR (overall response rate), % of subjects (recurrent ovarian cancer; [5]): (60%)
- ORR (overall response rate), number of subjects (recurrent ovarian cancer; [5]): 3
- PR (partial response), % of subjects (recurrent ovarian cancer; [5]): (60.0%)
- PR (partial response), number of subjects (recurrent ovarian cancer; [5]): 3
- CR (complete response), number of subjects (recurrent ovarian cancer; [6]): 0
- DCR (CR + PR + SD), disease control rate (recurrent ovarian cancer; [6]): (33.3%)
- DCR (CR + PR + SD), number of subjects (recurrent ovarian cancer; [6]): 3
- ORR (overall response rate), number of subjects (recurrent ovarian cancer; [6]): 0
- PR (partial response), number of subjects (recurrent ovarian cancer; [6]): 0
- PD (progressive disease), % of subjects (recurrent ovarian cancer; [7]): (34.0%)
- PD (progressive disease), subjects/N (recurrent ovarian cancer; [7]): 18/53
- PR (partial response), % of subjects (recurrent ovarian cancer; [7]): (9.4%)
- PR (partial response), subjects/N (recurrent ovarian cancer; [7]): 5/53
- Tumor regressions, % of subjects (recurrent ovarian cancer; [7]): (20.1%)
- Tumor regressions, subjects/N (recurrent ovarian cancer; [7]): 11/53
- Partial response, % of subjects (recurrent ovarian cancer; [8]): (10.0%)
- Partial response, subjects/N (recurrent ovarian cancer; [8]): 1/10
- Progressive disease, % of subjects (recurrent ovarian cancer; [8]): (50.0%)
- Progressive disease, subjects/N (recurrent ovarian cancer; [8]): 5/10
- Stable disease, % of subjects (recurrent ovarian cancer; [8]): (40.0%)
- Stable disease, subjects/N (recurrent ovarian cancer; [8]): 4/10
- Tumor regressions, % of subjects (recurrent ovarian cancer; [8]): (30.0%)
- Tumor regressions, subjects/N (recurrent ovarian cancer; [8]): 3/10
- PD (progressive disease), % of subjects (recurrent ovarian cancer; [9]): (33.3%)
- PD (progressive disease), subjects/N (recurrent ovarian cancer; [9]): 13/39
- PR (partial response), % of subjects (recurrent ovarian cancer; [9]): (5.1%)
- PR (partial response), subjects/N (recurrent ovarian cancer; [9]): 2/39
- Tumor regressions, % of subjects (recurrent ovarian cancer; [9]): (15.4%)
- Tumor regressions, subjects/N (recurrent ovarian cancer; [9]): 6/39
- CR (complete response), number of subjects (recurrent ovarian cancer; [10]): 0
- DCR (CR + PR + SD), disease control rate (recurrent ovarian cancer; [10]): (50.0%)
- DCR (CR + PR + SD), number of subjects (recurrent ovarian cancer; [10]): 5
- ORR (overall response rate), % of subjects (recurrent ovarian cancer; [10]): (10.0%)
- ORR (overall response rate), number of subjects (recurrent ovarian cancer; [10]): 1
- PR (partial response), % of subjects (recurrent ovarian cancer; [10]): (10.0%)
- PR (partial response), number of subjects (recurrent ovarian cancer; [10]): 1
- CR (complete response), number of subjects (recurrent ovarian cancer; [11]): 0
- DCR (CR + PR + SD), disease control rate (recurrent ovarian cancer; [11]): (41.4%)
- DCR (CR + PR + SD), number of subjects (recurrent ovarian cancer; [11]): 12
- ORR (overall response rate), % of subjects (recurrent ovarian cancer; [11]): (3.4%)
- ORR (overall response rate), number of subjects (recurrent ovarian cancer; [11]): 1
- PR (partial response), % of subjects (recurrent ovarian cancer; [11]): (3.4%)
- PR (partial response), number of subjects (recurrent ovarian cancer; [11]): 1
- Partial response, % of subjects (recurrent ovarian cancer; [12]): (26.7%)
- Partial response, subjects/N (recurrent ovarian cancer; [12]): 4/15
- Progressive disease, % of subjects (recurrent ovarian cancer; [12]): (33.3%)
- Progressive disease, subjects/N (recurrent ovarian cancer; [12]): 5/15
- Stable disease, % of subjects (recurrent ovarian cancer; [12]): (33.3%)
- Stable disease, subjects/N (recurrent ovarian cancer; [12]): 5/15
- Tumor regressions, % of subjects (recurrent ovarian cancer; [12]): (53.3%)
- Tumor regressions, subjects/N (recurrent ovarian cancer; [12]): 8/15
- Positive T cell response (survivin), % of subjects (survivin; [3]): (100%)
- Positive T cell response (survivin), subjects/evaluable (survivin; [3]): 4/4
- Positive T cell response (survivin), % of subjects (survivin; [4]): (100%)
- Positive T cell response (survivin), subjects/evaluable (survivin; [4]): 11/11
- Positive T cell response (survivin), % of subjects (survivin; [7]): (81.5%)
- Positive T cell response (survivin), subjects/evaluable (survivin; [7]): 22/27
- Positive T cell response (survivin), % of subjects (survivin; [8]): (25%)^a
- Positive T cell response (survivin), subjects/evaluable (survivin; [8]): 1/4
- Positive T cell response (survivin), % of subjects (survivin; [9]): (56.3%)^b
- Positive T cell response (survivin), subjects/evaluable (survivin; [9]): 9/16
